Measurements taken from patent US12522827B2 (priority 2021, dated 2026).
l = locked nucleic acid (LNA); d = 2'-deoxy (DNA)

Tests used:
[1] = tested on: A/Hong Kong/8/68 (HK68) (H3N2) virus; format: cell-based, Influenza A/Hong Kong/8/68 (HK68) H3N2 virus
PR8 (H1N1) virus = format: cell-based, Influenza A/PR/8/34 (PR8) H1N1 virus
wild-type PR8 virus = tested on: wild-type PR8 virus; set-up: species or system Balb/C female mice; conditions: mouse, in vivo

AGAcagcgaccaaAAG (AGACAGCGACCAAAAG; antisense; sugars from the 5' end l3 d10 l3, backbone and methylation of C not given here) [LNA8a]
drop in viral production (antiviral activity) [1]: up to 3 logs | drop in viral production (antiviral activity) (PR8 (H1N1) virus): up to 3 logs

AccAaaAGaaT (ACCAAAAGAAT; antisense; sugars from the 5' end lddlddllddl, backbone and methylation of C not given here) [LNA1]
effect on viral titer / viral production [1]: little to no effect | effect on viral titer / viral production (PR8 (H1N1) virus): little to no effect

CATACTTA [LNA5]
effect on viral titer / viral production [1]: failed to inhibit viral production | effect on viral titer / viral production (PR8 (H1N1) virus): failed to inhibit viral production

CCAAAAGA [LNA4]
effect on viral titer / viral production [1]: little to no effect | effect on viral titer / viral production (PR8 (H1N1) virus): little to no effect

CagaCaCGaCCaaAA (CAGACACGACCAAAA; antisense; sugars from the 5' end ldddldlldllddll, backbone and methylation of C not given here) [LNA6]
titer deficits (PR8 (H1N1) virus): greater than 2 log10

TACTtactgacaGCC [LNA9]
drop in viral production (antiviral activity) [1]: ~4 logs | clinical signs of disease (wild-type PR8 virus): little-to-no clinical signs of disease | protection from fatal influenza disease (survival) (wild-type PR8 virus): completely protected | recovery of weight (wild-type PR8 virus): fully recovered to pre-infection weight | weight loss (wild-type PR8 virus): minimal weight loss | antiviral response, cells pre-treated (PR8 (H1N1) virus): greater than 4 logs | drop in viral production (antiviral activity) (PR8 (H1N1) virus): ~5 logs | suppression of viral titer, post-infection treatment (PR8 (H1N1) virus): greater than 3 logs | viral inhibition at the lowest dilution (PR8 (H1N1) virus): greater than 2 logs

TagCAtActtA (TAGCATACTTA; antisense; sugars from the 5' end lddlldldddl, backbone and methylation of C not given here) [LNA3]
effect on viral titer / viral production [1]: failed to inhibit viral production | effect on viral titer / viral production (PR8 (H1N1) virus): failed to inhibit viral production
